Source: patent US10499648B2, “Sterilization method, formulation for sterilization use, and device for producing sterilizing liquid” (priority 2014, dated 2019)

What was measured:
[1] = tested on: Escherichia coli; assay: Sterilization effect of synthesized peroxynitric acid on Escherichia coli (FIG. 8); format: cell-based; settings: peroxynitric acid approximately 0.02 mM or higher; pH 3.5; 25° C.; from 7 orders to 2 orders or less (detection limit)
Method: In FIGS. 8, 9, and 11, solution of peroxynitric acid has a pH value of 3.5 and a temperature of 25° C. In the heat treatment of FIG. 10, the solution of peroxynitric acid is heated for thirty minutes to have a temperature of 60° C.
(§1) In this experiment, the detection limit was reached when the number of living microorganisms was in 2 orders of magnitude or less, then further sterilization effect was not measured. Thus, if the concentration of the synthesized peroxynitric acid is further increased, the number of living microorganisms is expected to be further reduced. In the experiment, diluted solution of the synthesized peroxynitric acid was used. If undiluted solution is used, more powerful microbicidal activity is expected to be exerted. The peroxynitric acid synthesized in the fourth embodiment has a concentration of 420 mM. For example, using undiluted solution of the synthesized peroxynitric acid probably lowers the number of living microorganisms to further […] of magnitude or more.

[2] = tested on: Bacillus subtilis spore; assay: Sterilization effect of synthesized peroxynitric acid on Bacillus subtilis spore (FIGS. 9-11); format: cell-based; settings: for drop of the number of living microorganisms in Bacillus subtilis spore: peroxynitric acid approximately 0.5 mM or higher, pH 3.5
Method: Where the solution of the synthesized peroxynitric acid has a pH value of 3.5 and the peroxynitric acid has a concentration of approximately 0.5 mM or higher, the number of living microorganisms in Bacillus subtilis spore drops from 6 orders of magnitude to 2 orders of magnitude or less, which indicates a drop of 4 orders of magnitude or more.
as §1

[3] = Lifetime / decomposition of synthesized peroxynitric acid depending on temperature; format: physicochemical; settings: solution at 0° C.
Text: The synthesis reaction of peroxynitric acid progresses also at a room temperature. To be specific, peroxynitric acid is synthesized at a room temperature; however, the lifetime of the synthesized peroxynitric acid depends on temperature. Where being saved at a room temperature, the synthesized peroxynitric acid is quickly decomposed to turn into nitric acid in a short time. When the temperature rises by 5 degrees, the rate of decomposition doubles. For example, the rate of decomposition at a temperature of 20° C. is 16 times as fast as that at a temperature of 0° C. (zero). Thus, the synthesized peroxynitric acid turns into nitric acid solution very quickly at a temperature of 50° C. The half-life of the peroxynitric acid is 10 minutes or so at a room temperature. The half-life of the peroxynitric acid is a few hours (2 to 3 hours or so) at a temperature of 0 (zero) degrees.
In order to preserve the solution with the biocidal activity maintained, it is preferable to set the temperature of the solution as low as possible. For example, the solution is adjusted to have a temperature of 0° C., which enables the solution to be stored/preserved for a couple of hours, for example, for 5 to 8 hours or so. Freezing the solution allow the solution to be preserved for a longer time.

[4] = Activation energy in decomposition response, compared with literature value; format: physicochemical
Method: As for the substance corresponding to the retention time RT of 2.8 minutes shown in FIG. 5, an activation energy in decomposition response thereof was actually measured. The activation energy measured was compared to an activation energy in decomposition response of peroxynitric acid. The comparison result is provided as follows: • Actual measured value: 109 kJ/mol • Literature value: 110 kJ/mol • Both the values are in good accord with each other. Thereby, the substance corresponding to the retention time RT of 2.8 minutes is probably peroxynitric acid.
The activation energy in decomposition response herein was cited from the following document.
J. Phys. Chem. A 1997, 101, 8822-8829 “Peroxynitric Acid Decay Mechanisms and Kinetics at Low pH”.

[5] = Time needed for sterilization depending on solution temperature; settings: solution temperature 30° C.
Method: Where the solution has a temperature of 10° C. or lower, the solution may be applied to an object to be sterilized with the temperature remaining unchanged. It is also possible to raise the temperature of the solution to 20° C. or more at the time of application of the solution to the object to be sterilized. It is preferable for the solution to have a lower temperature in order to preserve peroxynitric acid, but at the same time, is preferable for the solution to have a certain level of high temperature for sterilization. To be specific, while the solution having a temperature of 0° C. needs time to sterilize the object, the solution having a temperature of 30° C. needs only 20 seconds to sufficiently sterilize the object. When the situation permits to take time to sterilize the object, it is preferable to perform sterilization at a low temperature. When quick sterilization is needed, it is preferable to raise the temperature, for example, to 30 through 40° C.

[6] = Sterilization effect after adding enzyme for disappearing superoxide anion radicals
Text: The peroxynitric acid in the solution is probably a precursor which produces the superoxide anion radicals (O2—.). The superoxide anion radicals (O2—.) are probably precursors which produce the hydroperoxy radicals (HOO.).

[7] = J. Phys. Chem. A 1997, 101, 8822-8829; cited from earlier work
[8] = equilibrium O2-. + H+ <-> HOO.; cited from earlier work

Row | Compound | drop of the fungicidal concentration (number of living microorganisms) of Escherichia coli [1] | drop of the number of living microorganisms in Bacillus subtilis spore ([2]; FIG. 9, 25° C., from 6 orders to 2 orders or less (detection limit)) | drop of the number of living microorganisms in Bacillus subtilis spore ([2]; FIG. 10) | number of living microorganisms in Bacillus subtilis spore ([2]; FIG. 10, solution pH 6.5, stays in 6 orders of magnitude) | sterilization effect on Bacillus subtilis spore after heat treatment ([2]; FIG. 11, peroxynitric acid heated thirty minutes to 60° C., count stays in 6 orders of magnitude) | time the solution can be stored/preserved with biocidal activity maintained [3] | activation energy in decomposition response, actual measured value [4] | time needed to sufficiently sterilize the object [5] | sterilization effect with enzyme for disappearing superoxide anion radicals in the solution [6] | activation energy in decomposition response, literature value [7] | pKa (acid dissociation constant) [8]
1 | peroxynitric acid | ≥ 5 orders | ≥ 4 orders | ≥ 4 orders of magnitude | approximately constant independently of the concentration of the peroxynitric acid | disappearance of sterilization effect | 5 to 8 h | 26.1 kcal/mol | 20 s | sterilization effect is not observed | 26.3 kcal/mol | –
2 | [O]O [hydroperoxy radicals (HOO.), hydroperoxy radicals] | – | – | – | – | – | – | – | – | – | – | 4.8
